Measurements from PubChem BioAssay AID248 (DTP/NCI, 2004).
Several values for one entry are separate records, joined by “and”; a condition that tells them apart may be missing. Identical values can stand only once. Toxic doses and inconclusive results are not listed.

Test system: L1210 leukemia ip in BDF1 mice, survival T/C
Assay: NCI In Vivo Anticancer Drug Screen. Data for tumor model L1210 Leukemia (intraperitoneal) in B6D2F1 (BDF1) mice
Settings: endpoint: mean survival time, higher = longer survival
Summary of the method: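 In this screen, tumor-bearing mice given compound are compared to those given vehicle, and their survival values are reported as a treated-to-control quotient.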

`CCN(CC)CN1C(=O)C(=O)c2ccccc21` was tested. Which T/C (dose: 100.0 mg/kg/injection, schedule: Q01DX001 (ip), vehicle: steriod suspending solution) did it give?
Its T/C is 92 % of control.

And the T/C (dose: 200.0 mg/kg/injection, schedule: Q01DX001 (ip), vehicle: steriod suspending solution)?
Its T/C is 108 % of control.

What about the T/C (dose: 400.0 mg/kg/injection, schedule: Q01DX001 (ip), vehicle: steriod suspending solution) of the same compound?
The T/C was 114 % of control.

For `O=C1NC2(c3ccccc3)CCCCC2O1` (configuration not stated), which T/C (dose: 75.0 mg/kg/injection, schedule: Q01DX001 (ip), vehicle: acetone) is on record?
Its T/C is 98 % of control and 92 % of control.

What about the T/C (dose: 150.0 mg/kg/injection, schedule: Q01DX001 (ip), vehicle: acetone) of the same compound?
The T/C was 102 % of control.

And the T/C (dose: 300.0 mg/kg/injection, schedule: Q01DX001 (ip), vehicle: acetone)?
The T/C was 100 % of control and 89 % of control.

For `CC1CN1P(=S)(N1CC1C)N1CC1C` (configuration not stated), which T/C (dose: 2.5 mg/kg/injection, schedule: Q01DX Z (ip), vehicle: saline) is on record?
The T/C was 92 % of control.

What about the T/C (dose: 3.75 mg/kg/injection, schedule: Q01DX015 (ip), vehicle: saline) of the same compound?
The T/C was 104 % of control.

And the T/C (dose: 5.0 mg/kg/injection, schedule: Q01DX Z (ip), vehicle: saline)?
Its T/C is 95 % of control.

What about the T/C (dose: 6.0 mg/kg/injection, schedule: Q01DX001 (ip), vehicle: saline) of the same compound?
The T/C was 100 % of control.

What about the T/C (dose: 7.5 mg/kg/injection, schedule: Q01DX015 (ip), vehicle: saline) of the same compound?
Its T/C is 110 % of control.

What about the T/C (dose: 10.0 mg/kg/injection, schedule: Q01DX Z (ip), vehicle: saline) of the same compound?
Its T/C is 98 % of control.

And the T/C (dose: 12.0 mg/kg/injection, schedule: Q01DX001 (ip), vehicle: saline)?
The T/C was 113 % of control.

What about the T/C (dose: 12.0 mg/kg/injection, schedule: Q01DX015 (ip), vehicle: saline) of the same compound?
The T/C was 107 % of control.

And the T/C (dose: 20.0 mg/kg/injection, schedule: Q01DX Z (ip), vehicle: saline)?
Its T/C is 101 % of control.

And the T/C (dose: 24.0 mg/kg/injection, schedule: Q01DX001 (ip), vehicle: saline)?
The T/C was 104 % of control.

And the T/C (dose: 48.0 mg/kg/injection, schedule: Q01DX001 (ip), vehicle: saline)?
Its T/C is 108 % of control.

And the T/C (dose: 48.0 mg/kg/injection, schedule: Q01DX015 (ip), vehicle: saline)?
Its T/C is 164 % of control.

And the T/C (dose: 50.0 mg/kg/injection, schedule: Q01DX001 (ip), vehicle: saline)?
Its T/C is 108 % of control.

And the T/C (dose: 60.0 mg/kg/injection, schedule: Q01DX015 (ip), vehicle: saline)?
The T/C was 102 % of control.

And the T/C (dose: 72.0 mg/kg/injection, schedule: Q01DX Z (ip), vehicle: saline)?
The T/C was 117 % of control.

And the T/C (dose: 96.0 mg/kg/injection, schedule: Q01DX015 (ip), vehicle: saline)?
Its T/C is 97 % of control.

And the T/C (dose: 96.0 mg/kg/injection, schedule: Q01DX Z (ip), vehicle: saline)?
The T/C was 90 % of control.

What about the T/C (dose: 144.0 mg/kg/injection, schedule: Q01DX001 (ip), vehicle: saline) of the same compound?
Its T/C is 152 % of control and 153 % of control.

And the T/C (dose: 200.0 mg/kg/injection, schedule: Q01DX001 (ip), vehicle: saline)?
Its T/C is 112 % of control.

What about the T/C (dose: 216.0 mg/kg/injection, schedule: Q01DX001 (ip), vehicle: saline) of the same compound?
The T/C was 107 % of control.

`CN(/C(N)=N/[N+](=O)[O-])c1cccnc1` was tested. Which T/C (dose: 6.0 mg/kg/injection, schedule: Q04DX002 (ip), vehicle: Klucel (hydroxypropylcellulose) (HPC)) did it give?
Its T/C is 103 % of control.

And the T/C (dose: 12.0 mg/kg/injection, schedule: Q04DX002 (ip), vehicle: Klucel (hydroxypropylcellulose) (HPC))?
Its T/C is 103 % of control.

What about the T/C (dose: 25.0 mg/kg/injection, schedule: Q04DX002 (ip), vehicle: Klucel (hydroxypropylcellulose) (HPC)) of the same compound?
Its T/C is 103 % of control.

What about the T/C (dose: 50.0 mg/kg/injection, schedule: Q01DX009 (ip), vehicle: Klucel (hydroxypropylcellulose) (HPC)) of the same compound?
Its T/C is 103 % of control.

And the T/C (dose: 50.0 mg/kg/injection, schedule: Q04DX002 (ip), vehicle: Klucel (hydroxypropylcellulose) (HPC))?
Its T/C is 95 % of control.

And the T/C (dose: 100.0 mg/kg/injection, schedule: Q01DX009 (ip), vehicle: Klucel (hydroxypropylcellulose) (HPC))?
The T/C was 107 % of control.

What about the T/C (dose: 100.0 mg/kg/injection, schedule: Q04DX002 (ip), vehicle: Klucel (hydroxypropylcellulose) (HPC)) of the same compound?
Its T/C is 91 % of control and 92 % of control.

What does the source list for `CC(=N\NS(=O)(=O)c1ccc(C)cc1)/C(C)=N/NS(=O)(=O)c1ccc(C)cc1`?
T/C (dose: 75.0 mg/kg/injection, schedule: Q01DX001 (ip), vehicle: saline): 87 % of control; T/C (dose: 150.0 mg/kg/injection, schedule: Q01DX001 (ip), vehicle: saline): 89 % of control; T/C (dose: 300.0 mg/kg/injection, schedule: Q01DX001 (ip), vehicle: saline): 90 % of control

`CCOC(=O)N1CCc2nc3ccc(Cl)cc3cc21` was tested. Which T/C (dose: 100.0 mg/kg/injection, schedule: Q01DX001 (ip), vehicle: saline with Tween-80) did it give?
The T/C was 95 % of control.

What about the T/C (dose: 100.0 mg/kg/injection, schedule: Q01DX009 (ip), vehicle: saline with Tween-80) of the same compound?
The T/C was 104 % of control.

And the T/C (dose: 200.0 mg/kg/injection, schedule: Q01DX001 (ip), vehicle: saline with Tween-80)?
Its T/C is 93 % of control.

What about the T/C (dose: 200.0 mg/kg/injection, schedule: Q01DX009 (ip), vehicle: saline with Tween-80) of the same compound?
Its T/C is 110 % of control.

What about the T/C (dose: 400.0 mg/kg/injection, schedule: Q01DX001 (ip), vehicle: saline with Tween-80) of the same compound?
The T/C was 98 % of control.

What about the T/C (dose: 400.0 mg/kg/injection, schedule: Q01DX009 (ip), vehicle: saline with Tween-80) of the same compound?
The T/C was 106 % of control.
